Assay results reported in PMC10006169, “A phase I trial of LXS196, a protein kinase C (PKC) inhibitor, for metastatic uveal melanoma” (British Journal of Cancer, 2023).
Values joined by “and” are separate entries in the source; they are usually repeats but may differ in a detail not shown here. Equal values may be shown once.

Key:
patients with MUM [1] = assay: First cycle dose-limiting toxicities, phase I dose escalation; assay type: in vivo; details: for Maximum tolerated dose (MTD): BLRM and EWOC
Protocol: The study protocol and amendments were approved by the Independent Ethics Committee or Institutional Review Board for each centre, and all patients provided written informed consent. The study was conducted according to the principles of the Declaration of Helsinki and performed in compliance with Good Clinical Practice. All patients were aged ≥18 years old and had biopsy-proven MUM with progressive and measurable disease. […] There was no eligibility limit to the number of prior lines of therapy, including PKC inhibitors other than LXS196.
(§1) During dose escalation, patients received oral LXS196 either once daily (QD; 100–1000 mg) or twice daily (BID; 200–400 mg) in 28-day cycles until disease progression, intolerable toxicity or withdrawal of consent (Supplementary Fig. 1). Dosing was omitted on the second day of the first cycle (C1D2) to allow for longer post-dose sampling in order to better characterise PK. LXS196 was given on an empty stomach, at least 1 h before or 2 h after a meal. Dose escalation was guided by safety, PK data and a two-parameter Bayesian Logistic Regression Model (BLRM) employing escalation with overdose control (EWOC) criteria. The DLT period lasted 28 days after the first dose of LXS196. […] Upon determination of the MTD/RDE, the expansion part of the study was opened to further evaluate the safety, tolerability, PK and PD of LXS196 at the RDE in patients with MUM. No hypothesis testing was planned in this study, and therefore, no formal sample size calculation was needed. The sample size was selected to ensure the BLRM had adequate operating characteristics when selecting the MTD/RDE.
(§2) Routine safety assessments, including laboratory assessments, physical examinations, vital signs and electrocardiograms (ECGs), were conducted at regular intervals throughout the study and more frequently as needed following patient assessment by the treating physician. Adverse events (AEs) were assessed continuously according to the National Cancer Institute Common Terminology Criteria for Adverse Events (NCI-CTCAE) v4.03.

patients with MUM [2] = assay: Patient disposition, duration of exposure and dose interruptions; assay type: in vivo
Protocol: as §1, §2

pPKC delta = pPKC delta in PBMCs; assay type: in vivo, human; details: all dose levels
Source text: Fresh metastatic tumour biopsies were collected at baseline (prior to first dose) and on treatment at C1D15 to evaluate the modulation of PKC substrate proteins in tumours following exposure to LXS196 and to perform exploratory transcriptome and targeted DNA sequencing. Whole blood samples (peripheral blood mononuclear cells; PBMCs) were collected pre-dose on C1D1 and D15, and at various time points post-dose on C1D1, D2, D3, D15 and D16 to evaluate the modulation of PKC substrate proteins in a surrogate tissue. Owing to the exploratory nature of this phase I study, formal statistical tests were not planned to be performed. Data are presented using descriptive statistics and visualisations. Continuous variables are described with the mean and range. Categorical variables are described using counts and percentages. PFS is described using the Kaplan–Meier (KM) method.

SMILES: CC1(N)CCN(c2cccnc2NC(=O)c2nc(-c3ncccc3C(F)(F)F)cnc2N)CC1 [LXS196]
- Generalised oedema DLT (patients with MUM [1]; 100 mg QD n=3): 0 n (%)
- Hypotension DLT (patients with MUM [1]; 100 mg QD n=3): 0 n (%)
- Nausea DLT (patients with MUM [1]; 100 mg QD n=3): 0 n (%)
- Neutropenia DLT (patients with MUM [1]; 100 mg QD n=3): 0 n (%)
- Total DLT events (patients with MUM [1]; 100 mg QD n=3): 0 n (%)
- Vomiting DLT (patients with MUM [1]; 100 mg QD n=3): 0 n (%)
- Generalised oedema DLT (patients with MUM [1]; 200 mg BID n=5): 0 n (%)
- Hypotension DLT (patients with MUM [1]; 200 mg BID n=5): 0 n (%)
- Nausea DLT (patients with MUM [1]; 200 mg BID n=5): 0 n (%)
- Neutropenia DLT (patients with MUM [1]; 200 mg BID n=5): 0 n (%)
- Total DLT events (patients with MUM [1]; 200 mg BID n=5): 0 n (%)
- Vomiting DLT (patients with MUM [1]; 200 mg BID n=5): 0 n (%)
- Generalised oedema DLT (patients with MUM [1]; 200 mg QD n=4): 0 n (%)
- Hypotension DLT (patients with MUM [1]; 200 mg QD n=4): 0 n (%)
- Neutropenia DLT (patients with MUM [1]; 200 mg QD n=4): 0 n (%)
- Total DLT events (patients with MUM [1]; 200 mg QD n=4): 2 (50.0) n (%)
- Nausea DLT (patients with MUM [1]; 200 mg QD n=4, Grade 3): 1 (25.0) (Grade 3) n (%)
- Vomiting DLT (patients with MUM [1]; 200 mg QD n=4, Grade 3): 1 (25.0) (Grade 3) n (%)
- Generalised oedema DLT (patients with MUM [1]; 300 mg BID n=6): 0 n (%)
- Hypotension DLT (patients with MUM [1]; 300 mg BID n=6): 0 n (%)
- Nausea DLT (patients with MUM [1]; 300 mg BID n=6): 0 n (%)
- Neutropenia DLT (patients with MUM [1]; 300 mg BID n=6): 0 n (%)
- Total DLT events (patients with MUM [1]; 300 mg BID n=6): 0 n (%)
- Vomiting DLT (patients with MUM [1]; 300 mg BID n=6): 0 n (%)
- Generalised oedema DLT (patients with MUM [1]; 300 mg QD n=15): 0 n (%)
- Hypotension DLT (patients with MUM [1]; 300 mg QD n=15): 0 n (%)
- Nausea DLT (patients with MUM [1]; 300 mg QD n=15): 0 n (%)
- Neutropenia DLT (patients with MUM [1]; 300 mg QD n=15): 0 n (%)
- Total DLT events (patients with MUM [1]; 300 mg QD n=15): 0 n (%)
- Vomiting DLT (patients with MUM [1]; 300 mg QD n=15): 0 n (%)
- Hypotension DLT (patients with MUM [1]; 400 mg BID n=6): 1 (16.7) n (%)
- Nausea DLT (patients with MUM [1]; 400 mg BID n=6): 0 n (%)
- Neutropenia DLT (patients with MUM [1]; 400 mg BID n=6): 0 n (%)
- Total DLT events (patients with MUM [1]; 400 mg BID n=6): 2 (33.4) n (%)
- Vomiting DLT (patients with MUM [1]; 400 mg BID n=6): 0 n (%)
- Generalised oedema DLT (patients with MUM [1]; 400 mg BID n=6, Grade 3): 1 (16.7) (Grade 3) n (%)
- Generalised oedema DLT (patients with MUM [1]; 500 mg QD n=11): 0 n (%)
- Nausea DLT (patients with MUM [1]; 500 mg QD n=11): 0 n (%)
- Total DLT events (patients with MUM [1]; 500 mg QD n=11): 3 (27.3) n (%)
- Vomiting DLT (patients with MUM [1]; 500 mg QD n=11): 0 n (%)
- Hypotension DLT (patients with MUM [1]; 500 mg QD n=11, Grade 3): 2 (18.2) (Grade 3) n (%)
- Neutropenia DLT (patients with MUM [1]; 500 mg QD n=11, Grade 4): 1 (9.1) (Grade 4) n (%)
- Generalised oedema DLT (patients with MUM [1]; 800 mg QD n=1): 0 n (%)
- Nausea DLT (patients with MUM [1]; 800 mg QD n=1): 0 n (%)
- Neutropenia DLT (patients with MUM [1]; 800 mg QD n=1): 0 n (%)
- Total DLT events (patients with MUM [1]; 800 mg QD n=1): 1 (100) n (%)
- Vomiting DLT (patients with MUM [1]; 800 mg QD n=1): 0 n (%)
- Hypotension DLT (patients with MUM [1]; 800 mg QD n=1, Grade 4): 1 (100) (Grade 4) n (%)
- Generalised oedema DLT (patients with MUM [1]; 1000 mg QD n=4): 0 n (%)
- Nausea DLT (patients with MUM [1]; 1000 mg QD n=4): 0 n (%)
- Neutropenia DLT (patients with MUM [1]; 1000 mg QD n=4): 0 n (%)
- Total DLT events (patients with MUM [1]; 1000 mg QD n=4): 2 (50.0) n (%)
- Vomiting DLT (patients with MUM [1]; 1000 mg QD n=4): 0 n (%)
- Hypotension DLT (patients with MUM [1]; 1000 mg QD n=4, Grade 2 and 4): 2 (50.0) (Grade 2 and 4) n (%)
- Generalised oedema DLT (patients with MUM [1]; All BID n=17): 1 (5.9) n (%)
- Hypotension DLT (patients with MUM [1]; All BID n=17): 1 (5.9) n (%)
- Nausea DLT (patients with MUM [1]; All BID n=17): 0 n (%)
- Neutropenia DLT (patients with MUM [1]; All BID n=17): 0 n (%)
- Total DLT events (patients with MUM [1]; All BID n=17): 2 (11.8) n (%)
- Vomiting DLT (patients with MUM [1]; All BID n=17): 0 n (%)
- Generalised oedema DLT (patients with MUM [1]; All QD n=38): 0 n (%)
- Hypotension DLT (patients with MUM [1]; All QD n=38): 5 (13.2) n (%)
- Nausea DLT (patients with MUM [1]; All QD n=38): 1 (2.6) n (%)
- Neutropenia DLT (patients with MUM [1]; All QD n=38): 1 (2.6) n (%)
- Total DLT events (patients with MUM [1]; All QD n=38): 8 (21.0) n (%)
- Vomiting DLT (patients with MUM [1]; All QD n=38): 1 (2.6) n (%)
- Generalised oedema DLT (patients with MUM [1]; All patients n=55): 1.8 n (%) and 1 (1.8) n (%)
- Hypotension DLT (patients with MUM [1]; All patients n=55): 6 (10.9) n (%)
- Nausea DLT (patients with MUM [1]; All patients n=55): 1.8 n (%) and 1 (1.8) n (%)
- Neutropenia DLT (patients with MUM [1]; All patients n=55): 1.8 n (%) and 1 (1.8) n (%)
- Total DLT events (patients with MUM [1]; All patients n=55): 16.4 n (%)
- Vomiting DLT (patients with MUM [1]; All patients n=55): 1.8 n (%) and 1 (1.8) n (%)
- Recommended dose for expansion (RDE) (patients with MUM [1]; BID): 300 mg
- Maximum tolerated dose (MTD) (patients with MUM [1]; BID schedule): 400 mg
- Maximum tolerated dose (MTD) (patients with MUM [1]; QD schedule): 500 mg
- Doses at which hypotension DLT occurred (patients with MUM [1]; most common DLT): ≥ 500 mg/day
- Dose interruption by reason: adverse event (patients with MUM [2]; 300 mg BID (RDE) n=18): 3 (16.7) n (%)
- Dose interruption by reason: patient/guardian decision (patients with MUM [2]; 300 mg BID (RDE) n=18): 0 n (%)
- Dose interruption by reason: physician decision (patients with MUM [2]; 300 mg BID (RDE) n=18): 0 n (%)
- With at least one dose interruption (patients with MUM [2]; 300 mg BID (RDE) n=18): 3 (16.7) n (%)
- With more than one dose interruption (patients with MUM [2]; 300 mg BID (RDE) n=18): 1 (5.6) n (%)
- With only one dose interruption (patients with MUM [2]; 300 mg BID (RDE) n=18): 2 (11.1) n (%)
- Dose interruption by reason: adverse event (patients with MUM [2]; All BID n=30): 5 (16.7) n (%)
- Dose interruption by reason: patient/guardian decision (patients with MUM [2]; All BID n=30): 1 (3.3) n (%)
- Dose interruption by reason: physician decision (patients with MUM [2]; All BID n=30): 0 n (%)
- With at least one dose interruption (patients with MUM [2]; All BID n=30): 6 (20) n (%)
- With more than one dose interruption (patients with MUM [2]; All BID n=30): 3 (10.0) n (%)
- With only one dose interruption (patients with MUM [2]; All BID n=30): 3 (10) n (%)
- Dose interruption by reason: adverse event (patients with MUM [2]; All QD n=38): 11 (28.9) n (%)
- Dose interruption by reason: patient/guardian decision (patients with MUM [2]; All QD n=38): 0 n (%)
- Dose interruption by reason: physician decision (patients with MUM [2]; All QD n=38): 1 (2.6) n (%)
- With at least one dose interruption (patients with MUM [2]; All QD n=38): 11 (28.9) n (%)
- With more than one dose interruption (patients with MUM [2]; All QD n=38): 5 (13.2) n (%)
- With only one dose interruption (patients with MUM [2]; All QD n=38): 6 (15.8) n (%)
- Dose interruption by reason: adverse event (patients with MUM [2]; All patients N=68): 16 (23.5) n (%)
- Dose interruption by reason: patient/guardian decision (patients with MUM [2]; All patients N=68): 1 (1.5) n (%)
- Dose interruption by reason: physician decision (patients with MUM [2]; All patients N=68): 1 (1.5) n (%)
- With at least one dose interruption (patients with MUM [2]; All patients N=68): 17 (25) n (%)
- With more than one dose interruption (patients with MUM [2]; All patients N=68): 8 (11.8) n (%)
- With only one dose interruption (patients with MUM [2]; All patients N=68): 9 (13.2) n (%)
- Time post-dose to reduction in pPKC delta in PBMCs (pPKC delta): ≤ 6 h
